Reference: doi:10.1101/2025.01.17.633651, “Markovian State Models uncover Casein Kinase 1 dynamics that govern circadian period” (bioRxiv, 2025)

Target: CK1 D132A
Assay: Radioactive (32P-ATP) timecourse kinase assay, CK1 D132A mutant
Type: biochemical, human
Conditions: 200 μM peptide, 20 nM CK1 (primed) or 200 nM CK1 (unprimed), 750 μM ATP, 30 °C (Figure S15B-C)
Method: PER FASP region peptides were synthesized and purified to 95% or higher (SABio). Two independent reaction mixtures of 50 μL containing 200 μM of the FASP or in reaction buffer (25 mM Tris pH 7.5, 7.5 mM MgCl2, 1 mM DTT, 0.1 mg/mL BSA) were preincubated for 5 minutes with or without 20 nM CK1 (for primed FASP) or 200 nM CK1 (for unprimed FASP) and the reaction was started by addition of 750 μM of UltraPure ATP (Promega) containing 1–2 μCi of X-^32p ATP (Perkin Elmer). After incubation of the reaction mix at 30 °C, an 8 μL aliquot of the reaction mix was transferred to P81 phosphocellulose paper (Reaction Biology Corp) at the indicated timepoints. The P81 paper was washed three times with 75 mM of orthophosphoric acid and once with acetone. The air-dried P81 paper was counted for Pi incorporation using a scintillation counter (Perkin Elmer) by Cherenkov counting. Results shown are from four independent assays.

Substance | kinase activity, CK1 D132A compared with CK1 WT
RKKKTEVSAHLSSLTLPGKAESVVSLTSQ [unprimed FASP peptide, synthetic mouse PER2 FASP region peptide, unprimed CK1 substrate] | dramatic loss in activity
RKKKTEVSAHLSSLTLPGKAEpSVVSLTSQ [primed FASP peptide, synthetic mouse PER2 FASP peptide phosphorylated at the priming serine] | more modest effect
